# From ChEMBL document CHEMBL1201862, “PubChem BioAssay data set” (2004)
# The source made the active and inactive calls.
# Assays:
# [1] = biological target: T1, Leucine aminopeptidase (Plasmodium falciparum 3D7, UniProt Q8IL11); assay: P. falciparum M17LAP inhibitors, primary screen, biochemical, fluorogenic H-Leu-NHMec substrate, 1536-well (AID 1619); type: functional
# T1 sequence (Q8IL11 whole entry): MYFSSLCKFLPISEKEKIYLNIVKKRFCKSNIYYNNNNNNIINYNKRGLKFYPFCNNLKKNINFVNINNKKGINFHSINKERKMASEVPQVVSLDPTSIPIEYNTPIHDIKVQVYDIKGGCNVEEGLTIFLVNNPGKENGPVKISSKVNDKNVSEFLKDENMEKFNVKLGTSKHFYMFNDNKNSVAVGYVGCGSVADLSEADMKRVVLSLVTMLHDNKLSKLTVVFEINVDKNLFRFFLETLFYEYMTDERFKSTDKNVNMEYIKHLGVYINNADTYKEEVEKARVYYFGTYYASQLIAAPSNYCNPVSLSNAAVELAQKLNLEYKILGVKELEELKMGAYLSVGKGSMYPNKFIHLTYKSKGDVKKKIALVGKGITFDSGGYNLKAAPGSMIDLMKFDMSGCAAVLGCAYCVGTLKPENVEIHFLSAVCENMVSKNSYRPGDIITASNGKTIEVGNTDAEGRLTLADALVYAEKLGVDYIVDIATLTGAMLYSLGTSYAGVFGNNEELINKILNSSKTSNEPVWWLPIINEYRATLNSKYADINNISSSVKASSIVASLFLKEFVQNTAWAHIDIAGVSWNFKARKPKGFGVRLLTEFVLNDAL
# [2] = biological target: Steroidogenic factor 1 (Homo sapiens, UniProt Q13285); assay: Counterscreen for inverse agonists of the liver receptor homolog-1 (LRH-1; NR5A2): Luminescence-based cell-based high throughput dose response assay to identify inverse agonists of the Steroidogenic Factor 1 Nuclear Receptor (SF1; NR5A1).; type: functional
# [3] = biological target: T2, Corticotropin-releasing factor receptor 2/Corticotropin-releasing factor-binding protein (Homo sapiens, UniProt P24387+Q13324); assay: activators of CRF receptor 2 with binding protein – uHTS hits, confirmation (AID 602473); type: functional; conditions: read-out: EC50_Mean
# T2 sequence (Q13324 whole entry): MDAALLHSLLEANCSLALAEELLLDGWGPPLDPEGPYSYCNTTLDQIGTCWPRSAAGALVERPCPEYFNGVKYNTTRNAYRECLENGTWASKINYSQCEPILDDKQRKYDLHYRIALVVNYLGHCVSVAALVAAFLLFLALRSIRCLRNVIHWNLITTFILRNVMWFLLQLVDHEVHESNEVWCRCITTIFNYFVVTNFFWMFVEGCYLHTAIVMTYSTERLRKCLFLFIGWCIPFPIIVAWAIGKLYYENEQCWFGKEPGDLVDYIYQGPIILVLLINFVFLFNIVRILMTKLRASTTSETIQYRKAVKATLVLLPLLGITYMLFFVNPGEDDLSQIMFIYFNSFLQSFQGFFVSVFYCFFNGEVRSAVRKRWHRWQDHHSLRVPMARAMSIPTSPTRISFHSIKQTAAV
# T2 sequence (P24387 whole entry): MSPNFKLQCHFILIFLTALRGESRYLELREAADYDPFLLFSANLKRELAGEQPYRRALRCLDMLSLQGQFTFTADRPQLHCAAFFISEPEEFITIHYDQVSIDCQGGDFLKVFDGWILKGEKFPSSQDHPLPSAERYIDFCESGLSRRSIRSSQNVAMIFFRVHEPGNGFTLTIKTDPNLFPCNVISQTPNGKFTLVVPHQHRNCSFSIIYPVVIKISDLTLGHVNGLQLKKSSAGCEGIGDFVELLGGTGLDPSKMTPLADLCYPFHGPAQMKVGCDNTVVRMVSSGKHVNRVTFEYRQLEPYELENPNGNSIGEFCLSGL
# [4] = biological target: Nuclear receptor subfamily 5 group A member 2 (Homo sapiens, UniProt O00482); type: functional, cell-based;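 note: HEK293T cells transfected with LRH-1 and a StAR promoter luciferase reporter; potency for inhibitors that lower LRH-1 driven reporter light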
# [5] = biological target: T2, Corticotropin-releasing factor receptor 2/Corticotropin-releasing factor-binding protein; assay: Dose Response confirmation of uHTS hits for small molecule antagonists of the CRF-binding protein and CRF-R2 receptor complex.; type: functional; conditions: read-out: IC50_Mean
# [6] = nonselective StAR promoter luciferase inhibitors – cell-based, luminescence, luciferase reporter, counter-screen for LRH-1 inverse agonist project, dose response (AID 651969); type: functional
# [7] = biological target: T3, Probable nicotinate-nucleotide adenylyltransferase (Staphylococcus aureus (strain N315), UniProt P65502); type: functional, Staphylococcus aureus subsp. aureus N315;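 for IC50 Mean: confirmatory dose-response retesting of NadD inhibitor hits first found in an ultra-high-throughput screen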
# [8] = biological target: Genome polyprotein (dengue virus type 2, UniProt P29990); assay: flavivirus cap methylation enzyme inhibition – biochemical, confirmation dose response, primary screen (AID 588689); type: functional
# [9] = biological target: T3, Probable nicotinate-nucleotide adenylyltransferase; type: functional, Staphylococcus aureus subsp. aureus N315; conditions: read-out: IC50_Mean
# [10] = biological target: T4, SUMO-activating enzyme (Homo sapiens, UniProt Q9UBT2); assay: blockers of SAE1/SAE2–UBC9 SUMO transfer – biochemical, HTRF, uHTS, primary screen (AID 2006); type: protein-complex assay
# [11] = viability of PTEN-deleted HCT116 cells – cell-based, HCT116 PTEN knockout, dose response (AID 1047); type: functional;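 note: HCT116 colon tumor cells with PTEN knocked out; cells exposed to compound for 60 hours before readout; potency for loss of cell viability measured by luminescence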
# [12] = biological target: T5, Low molecular weight phosphotyrosine protein phosphatase (Homo sapiens, UniProt P24666); type: functional; conditions: read-out: IC50_Mean
# T5 sequence (P24666 whole entry): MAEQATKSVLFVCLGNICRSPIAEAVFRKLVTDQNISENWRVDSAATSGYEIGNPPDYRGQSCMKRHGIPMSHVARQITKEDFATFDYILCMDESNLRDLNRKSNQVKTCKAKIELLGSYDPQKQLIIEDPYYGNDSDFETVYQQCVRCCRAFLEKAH
# [13] = biological target: T5, Low molecular weight phosphotyrosine protein phosphatase; type: functional; conditions: read-out: IC50_Mean; remark: listed apart in the source
# [14] = biological target: T6, Carboxy-terminal domain RNA polymerase II polypeptide A small phosphatase 1 (Homo sapiens, UniProt Q9GZU7); assay: CTDSP1 inhibitors, concentration-response, biochemical, absorbance readout, ultra-high-throughput screen actives (AID 540297); type: functional
# T6 sequence (Q9GZU7 whole entry): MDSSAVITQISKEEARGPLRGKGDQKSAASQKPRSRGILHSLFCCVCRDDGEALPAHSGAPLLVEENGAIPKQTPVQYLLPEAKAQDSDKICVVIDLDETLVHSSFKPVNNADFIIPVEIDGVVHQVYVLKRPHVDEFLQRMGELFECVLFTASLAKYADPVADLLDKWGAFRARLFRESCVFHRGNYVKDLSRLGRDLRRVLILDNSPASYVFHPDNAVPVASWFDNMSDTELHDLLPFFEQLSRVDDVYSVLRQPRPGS
# [15] = viability of HCT116 lacking mutant beta-catenin – cell-based, human colon tumor, dose response (AID 1045); type: functional;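 note: HCT116 colon tumor cells with beta catenin knocked out; cells exposed to compound for 60 hours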
# [16] = biological target: Peroxisome proliferator-activated receptor gamma/Nuclear receptor coactivator 1 (Homo sapiens, UniProt P37231); type: functional;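 note: agonist potency as compounds enhance coactivator SRC-1 recruitment to PPARgamma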
# [17] = biological target: T7, Tyrosine-protein phosphatase non-receptor type 22 (Homo sapiens, UniProt Q9Y2R2); assay: PTPN22 enzyme inhibitors – biochemical, fluorescence, LYP catalytic domain, selectivity assay for LMPTP inhibitor project, dose response (AID 652006); type: functional; conditions: read-out: IC50_Mean
# T7 sequence (Q9Y2R2 whole entry): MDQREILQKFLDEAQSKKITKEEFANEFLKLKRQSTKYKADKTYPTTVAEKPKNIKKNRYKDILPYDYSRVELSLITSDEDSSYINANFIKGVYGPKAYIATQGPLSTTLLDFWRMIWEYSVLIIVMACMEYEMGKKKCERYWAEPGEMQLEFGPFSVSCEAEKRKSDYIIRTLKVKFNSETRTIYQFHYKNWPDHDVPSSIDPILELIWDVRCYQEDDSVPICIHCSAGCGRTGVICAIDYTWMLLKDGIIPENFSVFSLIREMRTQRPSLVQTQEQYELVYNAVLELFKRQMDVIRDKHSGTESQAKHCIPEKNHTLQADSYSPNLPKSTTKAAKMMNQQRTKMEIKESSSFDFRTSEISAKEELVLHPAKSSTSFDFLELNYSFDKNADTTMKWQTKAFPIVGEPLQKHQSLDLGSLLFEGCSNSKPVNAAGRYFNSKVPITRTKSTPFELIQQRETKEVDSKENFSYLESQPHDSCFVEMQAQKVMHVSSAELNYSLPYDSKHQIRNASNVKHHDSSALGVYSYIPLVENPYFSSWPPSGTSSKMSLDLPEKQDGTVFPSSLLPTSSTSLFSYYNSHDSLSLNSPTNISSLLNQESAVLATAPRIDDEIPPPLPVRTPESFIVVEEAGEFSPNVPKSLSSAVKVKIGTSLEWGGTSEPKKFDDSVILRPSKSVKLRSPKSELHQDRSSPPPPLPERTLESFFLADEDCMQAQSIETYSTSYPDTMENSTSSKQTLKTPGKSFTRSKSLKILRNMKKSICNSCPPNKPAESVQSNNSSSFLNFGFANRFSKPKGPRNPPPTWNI
# [18] = biological target: Peroxisome proliferator-activated receptor gamma/Nuclear receptor coactivator 2 (Homo sapiens, UniProt P37231); type: functional;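 note: agonist potency for raising coactivator recruitment to the receptor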
# [19] = biological target: Peroxisome proliferator-activated receptor gamma/Nuclear receptor coactivator 3 (Homo sapiens, UniProt P37231); type: functional;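 note: agonist potency for raising coactivator recruitment to the receptor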
# [20] = biological target: T4, SUMO-activating enzyme; assay: blockers of UBC9-mediated SUMO conjugation – biochemical, AlphaScreen, SUMOylation inhibitor project, confirmation (AID 2018); type: functional
# [21] = biological target: Beta-lactamase (Salmonella choleraesuis (strain SC-B67), UniProt Q5J463)
# [22] = biological target: Beta-lactamase (Pseudomonas aeruginosa, UniProt Q79MP6);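 note: biochemical dose-response test of metallo-beta-lactamase enzyme inhibition, read out by epi-absorbance; purified recombinant IMP-1 metallo-beta-lactamase with nitrocefin as substrate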
# [23] = system: H9c2; assay: cells; type: functional, cell-based; conditions: Rattus norvegicus, H9c2, Myocardium;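 note: confirmatory concentration-response retest of ultra-high-throughput screening hits for modulation of myocardial damage; cell death induced by hydrogen peroxide oxidative stress; compound pretreatment for 60 min then peroxide exposure for 2 h; potency is for protecting the cells against peroxide damage rather than for killing them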
# T3 sequence (P65502 whole entry): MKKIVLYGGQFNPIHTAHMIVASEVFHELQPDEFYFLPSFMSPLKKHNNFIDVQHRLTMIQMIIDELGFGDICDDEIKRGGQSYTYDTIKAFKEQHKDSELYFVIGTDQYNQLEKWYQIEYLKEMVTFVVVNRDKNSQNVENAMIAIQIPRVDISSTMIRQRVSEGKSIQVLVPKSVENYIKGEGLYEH
# Chain of Steroidogenic factor 1 (Q13285 whole entry): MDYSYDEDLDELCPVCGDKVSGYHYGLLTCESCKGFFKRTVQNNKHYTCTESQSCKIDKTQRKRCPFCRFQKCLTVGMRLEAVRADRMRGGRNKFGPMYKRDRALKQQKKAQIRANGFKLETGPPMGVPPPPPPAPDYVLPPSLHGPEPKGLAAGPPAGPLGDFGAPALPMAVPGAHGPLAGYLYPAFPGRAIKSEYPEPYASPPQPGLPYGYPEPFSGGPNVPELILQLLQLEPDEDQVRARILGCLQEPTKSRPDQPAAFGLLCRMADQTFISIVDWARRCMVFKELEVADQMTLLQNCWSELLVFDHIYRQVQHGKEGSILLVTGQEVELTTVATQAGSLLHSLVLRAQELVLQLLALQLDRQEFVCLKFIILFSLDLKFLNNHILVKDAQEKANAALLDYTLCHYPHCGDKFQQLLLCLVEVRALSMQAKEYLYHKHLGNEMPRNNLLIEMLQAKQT
# T4 sequence (Q9UBE0 whole entry): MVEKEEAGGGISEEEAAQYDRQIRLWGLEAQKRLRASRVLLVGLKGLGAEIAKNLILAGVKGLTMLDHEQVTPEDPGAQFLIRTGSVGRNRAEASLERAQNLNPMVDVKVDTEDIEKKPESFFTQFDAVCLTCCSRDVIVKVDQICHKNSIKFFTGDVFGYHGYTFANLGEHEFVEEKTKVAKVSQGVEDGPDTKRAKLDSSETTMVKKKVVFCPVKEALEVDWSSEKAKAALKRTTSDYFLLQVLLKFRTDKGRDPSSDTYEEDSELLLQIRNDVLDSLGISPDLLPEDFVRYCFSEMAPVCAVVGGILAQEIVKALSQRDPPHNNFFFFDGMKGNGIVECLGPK
# T4 sequence (Q9UBT2 whole entry): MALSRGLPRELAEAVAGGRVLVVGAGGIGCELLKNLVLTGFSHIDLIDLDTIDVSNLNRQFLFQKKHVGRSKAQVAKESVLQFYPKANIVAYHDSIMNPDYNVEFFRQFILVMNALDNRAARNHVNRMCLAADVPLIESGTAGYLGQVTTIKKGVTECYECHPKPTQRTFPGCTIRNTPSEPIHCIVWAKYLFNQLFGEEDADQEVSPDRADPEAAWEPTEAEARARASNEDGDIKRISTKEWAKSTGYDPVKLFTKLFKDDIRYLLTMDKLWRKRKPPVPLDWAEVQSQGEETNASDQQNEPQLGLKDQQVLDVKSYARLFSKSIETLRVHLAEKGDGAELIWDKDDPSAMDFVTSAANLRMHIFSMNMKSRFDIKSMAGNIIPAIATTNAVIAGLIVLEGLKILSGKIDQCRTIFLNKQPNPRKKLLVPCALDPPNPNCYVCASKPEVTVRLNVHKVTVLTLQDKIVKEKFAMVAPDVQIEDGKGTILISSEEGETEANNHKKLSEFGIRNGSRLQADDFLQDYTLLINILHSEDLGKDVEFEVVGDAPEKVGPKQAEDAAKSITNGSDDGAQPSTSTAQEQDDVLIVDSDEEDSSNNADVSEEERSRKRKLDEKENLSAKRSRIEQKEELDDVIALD
# Chain of Nuclear receptor subfamily 5 group A member 2 (O00482 whole entry): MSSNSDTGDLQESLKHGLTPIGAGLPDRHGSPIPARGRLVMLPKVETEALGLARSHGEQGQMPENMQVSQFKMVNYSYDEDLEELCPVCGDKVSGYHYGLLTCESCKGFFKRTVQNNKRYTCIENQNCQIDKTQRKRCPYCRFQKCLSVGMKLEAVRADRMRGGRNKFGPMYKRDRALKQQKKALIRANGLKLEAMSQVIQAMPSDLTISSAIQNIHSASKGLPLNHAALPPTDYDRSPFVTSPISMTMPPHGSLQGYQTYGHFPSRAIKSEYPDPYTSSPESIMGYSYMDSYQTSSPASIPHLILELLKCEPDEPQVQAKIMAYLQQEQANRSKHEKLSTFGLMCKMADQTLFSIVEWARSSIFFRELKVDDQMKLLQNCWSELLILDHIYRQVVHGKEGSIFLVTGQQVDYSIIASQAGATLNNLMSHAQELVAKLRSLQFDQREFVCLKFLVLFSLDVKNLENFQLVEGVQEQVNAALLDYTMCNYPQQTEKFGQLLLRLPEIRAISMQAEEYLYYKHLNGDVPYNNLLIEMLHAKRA
# Chain of Peroxisome proliferator-activated receptor gamma/Nuclear receptor coactivator 1 (P37231 whole entry, the tested form may be a part): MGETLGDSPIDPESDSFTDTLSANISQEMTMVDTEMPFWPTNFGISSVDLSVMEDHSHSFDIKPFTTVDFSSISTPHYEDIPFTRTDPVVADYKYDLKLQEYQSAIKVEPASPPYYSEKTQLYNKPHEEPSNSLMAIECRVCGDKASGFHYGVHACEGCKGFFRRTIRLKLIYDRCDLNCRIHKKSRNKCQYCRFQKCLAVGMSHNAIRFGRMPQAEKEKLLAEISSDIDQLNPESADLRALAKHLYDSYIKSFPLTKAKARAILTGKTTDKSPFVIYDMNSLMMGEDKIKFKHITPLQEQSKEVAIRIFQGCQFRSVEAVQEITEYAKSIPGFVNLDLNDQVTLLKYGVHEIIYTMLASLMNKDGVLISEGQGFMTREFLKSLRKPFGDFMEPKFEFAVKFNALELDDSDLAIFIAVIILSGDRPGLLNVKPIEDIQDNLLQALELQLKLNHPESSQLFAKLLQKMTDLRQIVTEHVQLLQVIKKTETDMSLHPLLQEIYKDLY
# Chain of Peroxisome proliferator-activated receptor gamma/Nuclear receptor coactivator 1 (Q15788 whole entry, further chain, the tested form may be a part): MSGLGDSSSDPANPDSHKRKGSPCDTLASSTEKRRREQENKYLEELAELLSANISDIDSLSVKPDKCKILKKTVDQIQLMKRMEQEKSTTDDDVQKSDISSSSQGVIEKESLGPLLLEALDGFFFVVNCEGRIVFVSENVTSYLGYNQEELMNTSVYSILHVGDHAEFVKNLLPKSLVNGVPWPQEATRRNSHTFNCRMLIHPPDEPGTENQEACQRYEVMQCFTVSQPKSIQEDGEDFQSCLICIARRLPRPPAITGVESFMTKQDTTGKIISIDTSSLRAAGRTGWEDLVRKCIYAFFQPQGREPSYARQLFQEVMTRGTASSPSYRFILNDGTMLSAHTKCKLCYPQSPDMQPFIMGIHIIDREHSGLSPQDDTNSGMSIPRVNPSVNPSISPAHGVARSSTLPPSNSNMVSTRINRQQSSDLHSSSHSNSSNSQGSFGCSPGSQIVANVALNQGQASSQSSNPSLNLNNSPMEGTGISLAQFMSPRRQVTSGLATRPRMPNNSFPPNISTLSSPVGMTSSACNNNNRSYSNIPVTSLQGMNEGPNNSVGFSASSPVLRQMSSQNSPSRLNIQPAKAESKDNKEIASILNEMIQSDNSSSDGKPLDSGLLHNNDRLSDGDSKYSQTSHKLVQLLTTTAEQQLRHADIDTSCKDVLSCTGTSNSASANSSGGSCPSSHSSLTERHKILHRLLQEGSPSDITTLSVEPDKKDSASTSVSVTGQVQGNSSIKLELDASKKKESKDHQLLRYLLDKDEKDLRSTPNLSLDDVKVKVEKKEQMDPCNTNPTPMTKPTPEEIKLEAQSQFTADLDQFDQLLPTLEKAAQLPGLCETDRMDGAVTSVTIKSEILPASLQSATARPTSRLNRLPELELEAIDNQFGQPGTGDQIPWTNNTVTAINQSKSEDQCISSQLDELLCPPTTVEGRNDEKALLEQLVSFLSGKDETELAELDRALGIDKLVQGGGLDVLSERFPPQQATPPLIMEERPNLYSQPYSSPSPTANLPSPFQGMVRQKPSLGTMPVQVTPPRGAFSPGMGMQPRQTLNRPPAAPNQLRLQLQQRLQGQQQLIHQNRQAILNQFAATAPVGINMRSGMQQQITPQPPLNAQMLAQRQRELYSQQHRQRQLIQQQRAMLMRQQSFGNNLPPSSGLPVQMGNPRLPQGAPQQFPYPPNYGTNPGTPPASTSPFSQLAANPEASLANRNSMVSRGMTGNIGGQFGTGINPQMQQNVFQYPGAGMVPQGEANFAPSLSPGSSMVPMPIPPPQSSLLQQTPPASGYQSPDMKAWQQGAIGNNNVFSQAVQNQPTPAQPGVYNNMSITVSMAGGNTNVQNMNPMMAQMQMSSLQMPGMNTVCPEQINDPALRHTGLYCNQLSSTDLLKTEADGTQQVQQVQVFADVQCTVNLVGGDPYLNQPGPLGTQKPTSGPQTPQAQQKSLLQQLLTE
# Chain of Beta-lactamase (Salmonella choleraesuis (strain SC-B67), UniProt Q5J463) (Q5J463 whole entry): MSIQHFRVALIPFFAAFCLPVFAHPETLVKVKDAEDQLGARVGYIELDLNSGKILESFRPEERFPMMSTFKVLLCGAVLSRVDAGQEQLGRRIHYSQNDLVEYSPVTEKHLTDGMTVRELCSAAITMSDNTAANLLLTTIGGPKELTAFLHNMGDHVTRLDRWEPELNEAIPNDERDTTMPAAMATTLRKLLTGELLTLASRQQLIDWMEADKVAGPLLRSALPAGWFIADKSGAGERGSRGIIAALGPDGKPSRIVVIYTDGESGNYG
# Chain of Beta-lactamase (Pseudomonas aeruginosa, UniProt Q79MP6) (Q79MP6 whole entry): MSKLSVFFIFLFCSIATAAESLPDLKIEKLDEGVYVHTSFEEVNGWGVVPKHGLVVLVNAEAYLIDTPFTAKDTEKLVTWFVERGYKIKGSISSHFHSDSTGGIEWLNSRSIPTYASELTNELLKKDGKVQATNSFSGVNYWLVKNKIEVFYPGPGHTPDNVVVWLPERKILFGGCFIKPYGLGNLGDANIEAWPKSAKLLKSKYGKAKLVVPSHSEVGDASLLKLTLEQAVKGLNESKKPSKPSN
smiles,measurement,setting,value
Cc1cccc(NC(=O)CSc2nc3n[nH]cc3c(=O)[nH]2)c1C,IC50,[1],4.46 µM (active)
same,IC50,[2],2.59 µM (active)
same,EC50,[3],> 53 µM (inactive)
same,IC50,[4],6.29 µM (active)
same,IC50,[5],> 47.1 µM (inactive)
O=[N+]([O-])c1ccc(N2CCN(S(=O)(=O)c3ccccc3)CC2)cc1NCc1cccnc1,IC50,[2],5.39 µM (active)
same,IC50,[4],14.8 µM (inactive)
same,IC50,[6],35.9 µM (inactive)
CCOc1ccc(NS(=O)(=O)c2ccc(Cl)c(NN=C3C(=O)NC(=S)NC3=O)c2)cc1Br,IC50,[7],5.55 µM (active)
same,IC50,[8],44.1 µM (active)
same,IC50,[9],55 µM (active)
CCOC(=O)Cn1/c(=N/C(=O)c2sc3ccccc3c2Cl)sc2cc(S(N)(=O)=O)ccc21,IC50,[10],4.97 µM (active)
same,EC50,[11],72.5 µM (active)
same,IC50,[12],27.7 µM (inactive)
same,IC50,[13],16.4 µM (active)
same,IC50,[14],2.06 µM (active)
same,EC50,[15],46.4 µM (active)
same,EC50,[16],11.3 µM (not active)
same,IC50,[17],52.2 µM (inactive)
same,EC50,[18],7.96 µM (active)
same,EC50,[19],14.3 µM (not active)
same,IC50,[20],11.8 µM (active)
O=C(Nc1ccc2oc(-c3ccccc3F)nc2c1)c1ccc([N+](=O)[O-])o1,IC50,[21],> 59.6 µM (inactive)
same,IC50,[12],3.72 µM (active)
same,IC50,[13],3.79 µM (active)
same,IC50,[14],1.23 µM (active)
same,IC50,[22],> 59.6 µM (inactive)
same,IC50,[17],7.64 µM (active)
same,IC50,[23],> 79 µM (inactive)
